Laboratory results published in patent US20140155406A1, “4-IMIDAZOPYRIDAZIN-1-YL-BENZAMIDES AND 4-IMIDAZOTRIAZIN-1-YL-BENZAMIDES BTK INHIBITORS” (priority 2011, published 2014).

How the values were obtained:
Assay type in all cases: biochemical
Src enzyme = molecular target: T1, Src enzyme (Homo sapiens, UniProt P12931); assay: Src enzyme activity, IMAP fluorescence polarization assay; conditions: 60 min pre-incubation, 4 μM ATP (Km)
T1 construct: purchased Millipore 14-326
Procedure: Src enzyme activity is measured using the IMAP (immobilized metal ion affinity-based fluorescence polarization) assay as outlined below.
Src enzyme (Millipore catalog#14-326), is diluted to 0.8 U/mL in KR buffer (10 mM Tris-HCl, 10 mM MgCl2, 0.01% Tween-20, 0.05% NaN3, 1 mM DTT, 2 mM MnCl2, pH 7.2).
Serial dilution log 10 from 2 mM to 63.2 nM of test compounds are made in 100% DMSO. The dilutions in DMSO are then diluted 50-fold in KR-buffer of which 5 μl is used in the assay, leading to a final compound concentration range in the assay from 10 μM to 0.316 nM. 5 μL/well of test compound in KR buffer (final DMSO concentration in the assay is 1%) is mixed with 5 μl/well of 0.8 U/mL Src enzyme (final concentration in the assay is 0.2 U/mL). Test compounds and Src enzyme are pre-incubated 60 minutes at room temperature, before adding 5 μL/well of 400 nM Fluorescin labeled substrate peptide (p34cdc2 substrate peptide, e.g. #R7157/#R7172, Molecular Devices) in KR-buffer. Final peptide substrate concentration in assay is 100 nM. The kinase assay is started by adding 5 μL/well of 16 μM ATP in KR-buffer (final ATP concentration is 4 μM ATP, Km ATP in Src IMAP assay). Following incubation for 2 h at room temperature the enzyme reaction is stopped by adding 40 μL/well IMAP Progressive Binding Solution (according to suppliers (Molecular Devices) protocol using 75% 1× buffer A and 25% 1× buffer B with 1:600 Progressive Binding Solution). After 60 min incubation at room temperature in the dark the FP signal is read. Fluorescence at 535 nm is measured using parallel and perpendicular filters to determine differences in rotation due to binding of the phosphorylated substrate peptide to the beads. Values are calculated as percentage of the difference in readout (ΔmPi) of the controls with and without ATP. EC50 values are determined by curve fitting of the experimental results using Activity Base.

Lck enzyme = molecular target: T2, Lck enzyme (Homo sapiens, UniProt P06239); assay: Lck enzyme activity, IMAP fluorescence polarization assay; conditions: 60 min pre-incubation, 6 μM ATP (Km)
T2 construct: purchased Millipore 14-442
Procedure: Lck enzyme activity is measured using the IMAP (immobilized metal ion affinity-based fluorescence polarization) assay as outlined below.
Lck enzyme (Millipore catalog#14-442), is diluted to 0.4 U/mL in KR buffer (10 mM Tris-HCl, 10 mM MgCl2, 0.01% Tween-20, 0.05% NaN3, 1 mM DTT, 2 mM MnCl2, pH 7.2). Serial dilution log 10 from 2 mM to 63.2 nM of test compounds are made in 100% DMSO. The dilutions in DMSO are then diluted 50-fold in KR-buffer of which 5 μl is used in the assay, leading to a final compound concentration range in the assay from 10 μM to 0.316 nM. 5 μL/well of test compound in KR buffer (final DMSO concentration in the assay is 1%) is mixed with 5 μl/well of 0.4 U/mL Lck enzyme (final concentration in the assay is 0.1 U/mL). Test compounds and Lck enzyme are pre-incubated 60 minutes at room temperature, before adding 5 μL/well of 400 nM Fluorescin labeled substrate peptide (p34cdc2 substrate peptide, e.g. #R7157/#R7172, Molecular Devices) in KR-buffer. Final peptide substrate concentration in assay is 100 nM. The kinase assay is started by adding 5 μL/well of 24 μM ATP in KR-buffer (final ATP concentration is 6 μM ATP, Km ATP in Lck IMAP assay). Following incubation for 2 h at room temperature the enzyme reaction is stopped by adding 40 μL/well IMAP Progressive Binding Solution (according to suppliers (Molecular Devices) protocol using 75% 1× buffer A and 25% 1× buffer B with 1:600 Progressive Binding Solution). After 60 min incubation at room temperature in the dark the FP signal is read. Fluorescence at 535 nm is measured using parallel and perpendicular filters to determine differences in rotation due to binding of the phosphorylated substrate peptide to the beads. Values are calculated as percentage of the difference in readout (ΔmPi) of the controls with and without ATP. EC50 values are determined by curve fitting of the experimental results using Activity Base.

Lyn enzyme = molecular target: T3, Lyn enzyme (Homo sapiens, UniProt P07948); assay: Lyn enzyme activity, IMAP fluorescence polarization assay; conditions: 60 min pre-incubation, 2 μM ATP (Km)
T3 construct: purchased Millipore 14-510
Procedure: Lyn enzyme activity is measured using the IMAP (immobilized metal ion affinity-based fluorescence polarization) assay as outlined below.
Lyn enzyme (Millipore catalog#14-510), is diluted to 250 mU/mL in KR buffer (10 mM Tris-HCl, 10 mM MgCl2, 0.01% Tween-20, 0.05% NaN3, 1 mM DTT, 2 mM MnCl2, pH 7.2). Serial dilution log 10 from 2 mM to 63.2 nM of test compounds are made in 100% DMSO. The dilutions in DMSO are then diluted 50-fold in KR-buffer of which 5 μl is used in the assay, leading to a final compound concentration range in the assay from 10 μM to 0.316 nM. 5 μL/well of test compound in KR buffer (final DMSO concentration in the assay is 1%) is mixed with 5 μl/well of 250 mU/mL Lyn enzyme (final concentration in the assay is 62.5 mU/mL). Test compounds and Lyn enzyme are pre-incubated 60 minutes at room temperature, before adding 5 μL/well of 400 nM Fluorescin labeled substrate peptide (Blk/Lyntide substrate, e.g. #R7188/#R7233, Molecular Devices) in KR-buffer. Final peptide substrate concentration in assay is 100 nM. The kinase assay is started by adding 5 μL/well of 8 μM ATP in KR-buffer (final ATP concentration is 2 μM ATP, Km ATP in Lyn IMAP assay). Following incubation for 2 h at room temperature the enzyme reaction is stopped by adding 40 μL/well IMAP Progressive Binding Solution (according to suppliers (Molecular Devices) protocol using 75% 1× buffer A and 25% 1× buffer B with 1:600 Progressive Binding Solution). After 60 min incubation at room temperature in the dark the FP signal is read. Fluorescence at 535 nm is measured using parallel and perpendicular filters to determine differences in rotation due to binding of the phosphorylated substrate peptide to the beads. Values are calculated as percentage of the difference in readout (ΔmPi) of the controls with and without ATP. EC50 values are determined by curve fitting of the experimental results using Activity Base.

FynT enzyme = molecular target: T4, FynT enzyme (Homo sapiens, UniProt P06241); assay: FynT enzyme activity, IMAP fluorescence polarization assay; conditions: 60 min pre-incubation, 0.2 μM ATP (Km)
T4 construct: purchased Biomol SE-287
Procedure: FynT enzyme activity is measured using the IMAP (immobilized metal ion affinity-based fluorescence polarization) assay as outlined below.
FynT enzyme (Biomol catalog# SE-287), is diluted to 0.5 μg/mL in KR buffer (10 mM Tris-HCl, 10 mM MgCl2, 0.01% Tween-20, 0.05% NaN3, 1 mM DTT, 2 mM MnCl2, pH 7.2). Serial dilution log 10 from 2 mM to 63.2 nM of test compounds are made in 100% DMSO. The dilutions in DMSO are then diluted 50-fold in KR-buffer of which 5 μl is used in the assay, leading to a final compound concentration range in the assay from 10 μM to 0.316 nM. 5 μL/well of test compound in KR buffer (final DMSO concentration in the assay is 1%) is mixed with 5 μl/well of 0.5 μg/mL FynT enzyme (final concentration in the assay is 125 ng/mL). Test compounds and FynT enzyme are pre-incubated 60 minutes at room temperature, before adding 5 μL/well of 400 nM Fluorescin labeled substrate peptide (p34cdc2 substrate peptide, e.g. #R7157/#R7172, Molecular Devices) in KR-buffer. Final peptide substrate concentration in assay is 100 nM. The kinase assay is started by adding 5 μL/well of 0.8 μM ATP in KR-buffer (final ATP concentration is 0.2 μM ATP, Km ATP in FynT IMAP assay). Following incubation for 2 h at room temperature the enzyme reaction is stopped by adding 40 μL/well IMAP Progressive Binding Solution (according to suppliers (Molecular Devices) protocol using 75% 1× buffer A and 25% 1× buffer B with 1:600 Progressive Binding Solution). After 60 min incubation at room temperature in the dark the FP signal is read. Fluorescence at 535 nm is measured using parallel and perpendicular filters to determine differences in rotation due to binding of the phosphorylated substrate peptide to the beads. Values are calculated as percentage of the difference in readout (ΔmPi) of the controls with and without ATP. EC50 values are determined by curve fitting of the experimental results using Activity Base.

T3 sequence (P07948 whole entry): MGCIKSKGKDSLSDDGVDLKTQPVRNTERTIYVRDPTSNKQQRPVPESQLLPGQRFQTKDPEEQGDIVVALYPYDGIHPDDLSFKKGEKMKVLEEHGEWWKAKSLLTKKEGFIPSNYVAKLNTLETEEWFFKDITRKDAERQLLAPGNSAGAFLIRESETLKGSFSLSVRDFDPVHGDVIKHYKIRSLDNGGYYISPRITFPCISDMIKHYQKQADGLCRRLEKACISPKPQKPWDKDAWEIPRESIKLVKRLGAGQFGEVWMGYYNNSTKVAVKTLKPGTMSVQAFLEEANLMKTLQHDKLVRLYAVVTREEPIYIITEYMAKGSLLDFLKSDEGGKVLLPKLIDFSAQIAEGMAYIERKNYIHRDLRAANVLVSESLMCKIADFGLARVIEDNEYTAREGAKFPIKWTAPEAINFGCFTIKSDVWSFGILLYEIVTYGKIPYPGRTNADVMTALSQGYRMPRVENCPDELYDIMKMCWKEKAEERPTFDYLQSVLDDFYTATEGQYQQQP
T2 sequence (P06239 whole entry): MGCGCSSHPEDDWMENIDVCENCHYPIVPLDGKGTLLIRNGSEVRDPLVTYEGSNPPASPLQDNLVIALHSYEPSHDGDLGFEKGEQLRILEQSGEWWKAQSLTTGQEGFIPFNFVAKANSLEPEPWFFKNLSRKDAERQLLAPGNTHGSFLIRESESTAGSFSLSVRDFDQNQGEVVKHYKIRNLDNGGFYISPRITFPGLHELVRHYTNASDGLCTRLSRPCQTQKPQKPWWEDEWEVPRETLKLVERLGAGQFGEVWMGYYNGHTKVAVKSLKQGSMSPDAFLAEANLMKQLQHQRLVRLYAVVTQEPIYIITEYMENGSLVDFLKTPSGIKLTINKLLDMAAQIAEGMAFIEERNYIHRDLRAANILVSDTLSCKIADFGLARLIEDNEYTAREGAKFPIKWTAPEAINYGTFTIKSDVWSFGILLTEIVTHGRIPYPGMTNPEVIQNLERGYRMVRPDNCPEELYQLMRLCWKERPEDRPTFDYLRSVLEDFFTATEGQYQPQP
T4 sequence (P06241 1-534 isoform P06241-2): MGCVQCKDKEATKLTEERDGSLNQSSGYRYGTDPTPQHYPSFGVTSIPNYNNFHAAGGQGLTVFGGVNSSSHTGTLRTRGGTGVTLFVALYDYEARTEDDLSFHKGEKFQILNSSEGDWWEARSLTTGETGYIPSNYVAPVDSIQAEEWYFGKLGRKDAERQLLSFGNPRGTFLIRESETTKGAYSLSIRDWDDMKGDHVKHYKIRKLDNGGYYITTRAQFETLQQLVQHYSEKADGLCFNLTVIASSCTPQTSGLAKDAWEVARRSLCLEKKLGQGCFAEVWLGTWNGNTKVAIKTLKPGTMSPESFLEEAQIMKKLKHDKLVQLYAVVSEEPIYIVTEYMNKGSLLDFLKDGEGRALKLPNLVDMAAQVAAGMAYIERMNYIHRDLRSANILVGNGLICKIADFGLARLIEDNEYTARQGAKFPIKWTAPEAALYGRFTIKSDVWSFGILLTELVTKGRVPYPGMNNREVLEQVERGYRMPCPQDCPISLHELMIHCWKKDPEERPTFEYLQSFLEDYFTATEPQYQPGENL
T1 sequence (P12931 whole entry): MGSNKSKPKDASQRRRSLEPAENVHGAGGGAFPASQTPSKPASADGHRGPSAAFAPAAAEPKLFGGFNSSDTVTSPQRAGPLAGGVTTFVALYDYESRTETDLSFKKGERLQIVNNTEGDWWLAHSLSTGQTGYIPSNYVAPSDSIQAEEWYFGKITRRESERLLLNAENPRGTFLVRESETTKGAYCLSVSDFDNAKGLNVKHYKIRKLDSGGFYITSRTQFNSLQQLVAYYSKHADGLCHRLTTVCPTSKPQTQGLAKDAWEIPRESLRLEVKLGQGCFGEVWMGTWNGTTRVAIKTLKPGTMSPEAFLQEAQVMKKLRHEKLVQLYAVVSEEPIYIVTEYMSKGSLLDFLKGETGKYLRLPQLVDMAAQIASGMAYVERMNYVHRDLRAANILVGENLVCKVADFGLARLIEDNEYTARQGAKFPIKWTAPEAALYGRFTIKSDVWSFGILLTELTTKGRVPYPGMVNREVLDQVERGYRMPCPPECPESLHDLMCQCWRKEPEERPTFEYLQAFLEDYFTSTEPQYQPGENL

SMILES | EC50 (Src enzyme) [nM] | EC50 (Lck enzyme) [nM] | EC50 (Lyn enzyme) [nM] | EC50 (FynT enzyme) [nM]
CC#CC(=O)N1CCC[C@H]1c1nc(-c2ccc(C(=O)Nc3cc(OC)ccn3)cc2)c2c(C)nccn12 [Example 16, (S)-4-(3-(1-but-2-ynoylpyrrolidin-2-yl)-8-methylimidazo[1,5-a]pyrazin-1-yl)-N-(4-methoxypyridin-2-yl)benzamide] | ≥ 1000 | ≥ 1000 | ≥ 1000 | ≥ 1000
CCCc1ccnc(NC(=O)c2ccc(-c3nc([C@@H]4CCCCN4C(=O)/C=C/COC)n4ccnc(C)c34)cc2)c1 [Example 34, (S,E)-4-(3-(1-(4-methoxybut-2-enoyl)piperidin-2-yl)-8-methylimidazo[1,5-a]pyrazin-1-yl)-N-(4-propylpyridin-2-yl)benzamide] | ≥ 1000 | ≥ 1000 | ≥ 1000 | ≥ 1000
C=CC(=O)N1CCC[C@H]1c1nc(-c2ccc(C(=O)Nc3cc(CC)ccn3)cc2)c2c(C)nccn12 [Example 14, (S)-4-(3-(1-Acryloylpyrrolidin-2-yl)-8-methylimidazo[1,5-a]pyrazin-1-yl)-N-(4-ethylpyridin-2-yl)benzamide] | ≥ 1000 | ≥ 1000 | ≥ 1000 | ≥ 1000

More lines, now with the values ahead:

EC50 (Src enzyme) [nM] | EC50 (Lck enzyme) [nM] | EC50 (Lyn enzyme) [nM] | EC50 (FynT enzyme) [nM] | SMILES
≥ 1000 | ≥ 1000 | ≥ 1000 | ≥ 1000 | CCCc1ccnc(NC(=O)c2ccc(-c3nc([C@@H]4CCCCN4C(=O)c4ccnc(Cl)n4)n4ccnc(C)c34)cc2)c1 [Example 5, (S)-4-(3-(1-(2-chloropyrimidine-4-carbonyl)piperidin-2-yl)-8-methylimidazo[1,5-a]pyrazin-1-yl)-N-(4-propylpyridin-2-yl)benzamide]
≥ 1000 | ≥ 1000 | ≥ 1000 | ≥ 1000 | CC#CC(=O)N1CCC[C@H]1c1nc(-c2ccc(C(=O)Nc3ccccn3)cc2)c2c(C)nccn12 [Example 1, (S)-4-(3-(1-But-2-ynoylpyrrolidin-2-yl)-8-methylimidazo[1,5-a]pyrazin-1-yl)-N-(pyridin-2-yl)benzamide]
